Source: US9554573B2, “Binary insecticidal or pesticidal mixture” (BAYER CROPSCIENCE AKTIENGESELLSCHAFT, priority 2013, dated 2017)

What was measured:
Phaedon cochleariae = Phaedon cochleariae spray test (Chinese cabbage leaf disks); assay type: in vivo; settings: foliar, 144 h, after 6 d, read-out: Efficacy in % after 6 d (mortality)
Description: Solvent: 78.0 parts by weight of acetone
• 1.5 parts by weight of dimethylformamide Emulsifier: 0.5 parts by weight of alkylaryl polyglycolether
To produce a suitable preparation of active compound, 1 part by weight of active compound is mixed with the stated amount of solvent and emulsifier, and the concentrate is diluted with emulsifier—containing water to the desired concentration. To produce a suitable preparation of a spore suspension the spores are diluted with emulsifier—containing water to the desired concentration.
Chinese cabbage (Brassica pekinensis) leaf-disks are sprayed with a preparation of the active ingredient of the desired concentration. Once dry, the leaf disks are infested with mustard beetle larvae (Phaedon cochleariae).
After the specified period of time, mortality in % is determined. 100% means all beetle larvae have been killed and 0% means none of the beetle larvae have been killed. The mortality values determined thus are recalculated using the Colby-formula (see sheet 1).

Spodoptera frugiperda = Spodoptera frugiperda spray test (maize leaf sections); assay type: in vivo; settings: 144 h, after 6 d, read-out: Efficacy in % after 6 d (mortality)
Description: Solvent: 78.0 parts by weight acetone
• 1.5 parts by weight dimethylformamide Emulsifier: 0.5 parts by weight alkylarylpolyglycolether
To produce a suitable preparation of the active compound, 1 part by weight of active compound is mixed with the stated amount of solvent and emulsifier, and the concentrate is diluted with emulsifier-containing water to the desired concentration. To produce a suitable preparation of a spore suspension the spores are diluted with emulsifier—containing water to the desired concentration.
Maize (Zea mais) leaf sections are sprayed with a preparation of the active ingredient of the desired concentration. Once dry, the leaf sections are infested with fall armyworm larvae (Spodoptera frugiperda).
After the specified period of time, mortality in % is determined. 100% means all caterpillars have been killed and 0% means none of the caterpillars have been killed. The mortality values determined thus are recalculated using the Colby-formula (see sheet 1).

SMILES: Cc1cc(C(F)(C(F)(F)F)C(F)(F)F)ccc1NC(=O)c1cccc(Cl)c1C(=O)NC(C)(C)C#N [(I-5)]
- mortality at 2.5 g/ha (Phaedon cochleariae; 2.5 g ai/ha): 0%
- mortality at 12 g/ha (Phaedon cochleariae; 12 g ai/ha): 0%
- mortality at 0.25 g/ha (Spodoptera frugiperda; 0.25 g ai/ha): 0%
- mortality at 0.8 g/ha (Spodoptera frugiperda; 0.8 g ai/ha): 33%
- mortality at 3 g/ha (Spodoptera frugiperda; 3 g ai/ha): 33%
